# Measured values published in PubChem BioAssay AID344 (DTP/NCI, 2004).
# Several values for one entry are separate records, joined by “and”; a condition that tells them apart may be missing. Identical values can stand only once. Toxic doses and inconclusive results are not listed.
# Test system: mice, LPC-1 plasma cell tumor ip, median survival T/C
# Experiment: NCI In Vivo Anticancer Drug Screen. Data for tumor model Lieberman Plasma Cell No. 1 (LPC-1) (intraperitoneal) in unknown mice
# Details: endpoint: median survival time, higher = longer survival
# Method: The antitumor activity of compounds was measured in mice bearing transplantable tumors. Survival or tumor size were measured and the results are expressed as the measurement made in the treated group (T) divided by the measurement made in the vehicle treated control group (C). The tumor model used in this assay is Lieberman Plasma Cell No. 1 (LPC-1) (intraperitoneal) in unknown mice
# [1] = dose: 55.0 mg/kg/injection, schedule: Q01DX028 (sc), vehicle: carboxymethylcellulose (CMC)
# [2] = dose: 80.0 mg/kg/injection, schedule: Q01DX028 (sc), vehicle: carboxymethylcellulose (CMC)
# [3] = dose: 180.0 mg/kg/injection, schedule: Q01DX028 (sc), vehicle: carboxymethylcellulose (CMC)
# [4] = dose: 270.0 mg/kg/injection, schedule: Q01DX028 (sc), vehicle: carboxymethylcellulose (CMC)
# [5] = dose: 3.0 mg/kg/injection, schedule: Q01DX028 (sc), vehicle: saline
structure (smiles),measurement,setting,value
CS(=O)(=O)OCCN(CCOS(C)(=O)=O)c1ccc(/C=N/Nc2ncnc3nc[nH]c23)cc1,T/C,"dose: 5.0 mg/kg/injection, schedule: Q03HX056 (sc), vehicle: other",111 % of control
same,T/C,"dose: 8.0 mg/kg/injection, schedule: Q01DX028 (sc), vehicle: carboxymethylcellulose (CMC)",186 % of control
same,T/C,"dose: 10.0 mg/kg/injection, schedule: Q03HX008 (sc), vehicle: other",100 % of control
same,T/C,"dose: 10.0 mg/kg/injection, schedule: Q03HX056 (sc), vehicle: other",116 % of control
same,T/C,"dose: 20.0 mg/kg/injection, schedule: Q03HX008 (sc), vehicle: other",102 % of control
same,T/C,"dose: 20.0 mg/kg/injection, schedule: Q03HX056 (sc), vehicle: other",150 % of control
same,T/C,"dose: 36.0 mg/kg/injection, schedule: Q01DX028 (sc), vehicle: carboxymethylcellulose (CMC)",171 % of control
same,T/C,"dose: 40.0 mg/kg/injection, schedule: Q03HX008 (sc), vehicle: other",116 % of control
same,T/C,[1],210 % of control
same,T/C,"dose: 79.0 mg/kg/injection, schedule: Q01DX028 (sc), vehicle: other",158 % of control
same,T/C,"dose: 80.0 mg/kg/injection, schedule: Q01DX001 (sc), vehicle: other",94 % of control
same,T/C,"dose: 80.0 mg/kg/injection, schedule: Q01DX028 (ip), vehicle: other",177 % of control
same,T/C,[2],218 % of control and 102 % of control
same,T/C,"dose: 80.0 mg/kg/injection, schedule: Q03DX004 (sc), vehicle: other",111 % of control
same,T/C,"dose: 80.0 mg/kg/injection, schedule: Q03HX008 (sc), vehicle: other",108 % of control
same,T/C,"dose: 119.0 mg/kg/injection, schedule: Q01DX028 (sc), vehicle: other",210 % of control
same,T/C,"dose: 120.0 mg/kg/injection, schedule: Q01DX028 (ip), vehicle: other",166 % of control
same,T/C,"dose: 120.0 mg/kg/injection, schedule: Q01DX028 (oral), vehicle: other",122 % of control
same,T/C,"dose: 120.0 mg/kg/injection, schedule: Q01DX028 (sc), vehicle: carboxymethylcellulose (CMC)",175 % of control and 252 % of control
same,T/C,"dose: 120.0 mg/kg/injection, schedule: Q01DX028 (sc), vehicle: other",189 % of control
same,T/C,"dose: 120.0 mg/kg/injection, schedule: Q03DX004 (sc), vehicle: other",116 % of control
same,T/C,"dose: 160.0 mg/kg/injection, schedule: Q01DX001 (sc), vehicle: other",97 % of control
same,T/C,"dose: 179.0 mg/kg/injection, schedule: Q01DX028 (sc), vehicle: other",187 % of control
same,T/C,"dose: 180.0 mg/kg/injection, schedule: Q01DX028 (ip), vehicle: other",111 % of control
same,T/C,[3],164 % of control and 238 % of control
same,T/C,"dose: 180.0 mg/kg/injection, schedule: Q01DX028 (sc), vehicle: other",166 % of control
same,T/C,"dose: 180.0 mg/kg/injection, schedule: Q03DX004 (sc), vehicle: other",116 % of control
same,T/C,"dose: 269.0 mg/kg/injection, schedule: Q01DX028 (sc), vehicle: other",166 % of control
same,T/C,"dose: 270.0 mg/kg/injection, schedule: Q01DX028 (ip), vehicle: other",122 % of control
same,T/C,"dose: 270.0 mg/kg/injection, schedule: Q01DX028 (oral), vehicle: other",119 % of control
same,T/C,[4],202 % of control
same,T/C,"dose: 270.0 mg/kg/injection, schedule: Q03DX004 (sc), vehicle: other",116 % of control
same,T/C,"dose: 320.0 mg/kg/injection, schedule: Q01DX001 (sc), vehicle: other",105 % of control
same,T/C,"dose: 640.0 mg/kg/injection, schedule: Q01DX001 (sc), vehicle: other",105 % of control
CS(=O)(=O)OCCN(CCOS(C)(=O)=O)c1ccc(C=Nc2ccc3oc(=O)ccc3c2)cc1,T/C,"dose: 3.5 mg/kg/injection, schedule: Q01DX Z (sc), vehicle: carboxymethylcellulose (CMC)",166 % of control
same,T/C,"dose: 3.8 mg/kg/injection, schedule: Q01DX028 (sc), vehicle: steriod suspending solution",165 % of control
same,T/C,"dose: 7.0 mg/kg/injection, schedule: Q01DX Z (sc), vehicle: carboxymethylcellulose (CMC)",177 % of control
same,T/C,"dose: 7.5 mg/kg/injection, schedule: Q01DX028 (sc), vehicle: steriod suspending solution",188 % of control
same,T/C,"dose: 14.0 mg/kg/injection, schedule: Q01DX Z (sc), vehicle: carboxymethylcellulose (CMC)",216 % of control
same,T/C,"dose: 15.0 mg/kg/injection, schedule: Q01DX028 (sc), vehicle: steriod suspending solution",250 % of control
same,T/C,"dose: 28.0 mg/kg/injection, schedule: Q01DX Z (sc), vehicle: carboxymethylcellulose (CMC)",161 % of control
same,T/C,"dose: 30.0 mg/kg/injection, schedule: Q01DX028 (sc), vehicle: steriod suspending solution",230 % of control
CS(=O)(=O)OCCN(CCOS(C)(=O)=O)c1ccc(C(=O)O)cc1,T/C,"dose: 20.0 mg/kg/injection, schedule: Q01DX028 (sc), vehicle: carboxymethylcellulose (CMC)",205 % of control
same,T/C,"dose: 40.0 mg/kg/injection, schedule: Q01DX028 (sc), vehicle: carboxymethylcellulose (CMC)",350 % of control
same,T/C,[1],255 % of control
same,T/C,[2],197 % of control
same,T/C,[3],105 % of control
same,T/C,[4],89 % of control
O=c1ccc2cc(OC3OC(CO)C(O)C(O)C3O)c(O)cc2o1 (stereo not drawn),T/C,"dose: 400.0 mg/kg/injection, schedule: Q01DX028 (sc), vehicle: carboxymethylcellulose (CMC)",100 % of control
same,T/C,"dose: 600.0 mg/kg/injection, schedule: Q01DX028 (sc), vehicle: carboxymethylcellulose (CMC)",100 % of control
same,T/C,"dose: 900.0 mg/kg/injection, schedule: Q01DX028 (sc), vehicle: carboxymethylcellulose (CMC)",97 % of control
COc1cc2oc(=O)ccc2cc1CC=C(C)C,T/C,"dose: 25.0 mg/kg/injection, schedule: Q01DX028 (sc), vehicle: saline",100 % of control
O=C(O)c1[nH]c(=O)[nH]c(=O)c1F,T/C,"dose: 1.8 mg/kg/injection, schedule: Q01DX028 (sc), vehicle: saline",180 % of control
same,T/C,[5],123 % of control
same,T/C,"dose: 5.0 mg/kg/injection, schedule: Q01DX028 (sc), vehicle: saline",119 % of control
same,T/C,"dose: 8.4 mg/kg/injection, schedule: Q01DX028 (sc), vehicle: saline",97 % of control and 114 % of control
same,T/C,"dose: 14.0 mg/kg/injection, schedule: Q01DX028 (sc), vehicle: saline",93 % of control and 104 % of control
same,T/C,"dose: 23.0 mg/kg/injection, schedule: Q01DX028 (sc), vehicle: saline",95 % of control and 102 % of control
same,T/C,"dose: 39.0 mg/kg/injection, schedule: Q01DX028 (sc), vehicle: saline",93 % of control
same,T/C,"dose: 65.0 mg/kg/injection, schedule: Q01DX028 (sc), vehicle: saline",88 % of control
COC12C(COC(N)=O)C3=C(C(=O)C(C)=C(N)C3=O)N1CC1C2N1C (stereo not drawn),T/C,"dose: 0.7 mg/kg/injection, schedule: Q01DX028 (sc), vehicle: saline",124 % of control
same,T/C,"dose: 2.0 mg/kg/injection, schedule: Q01DX028 (sc), vehicle: saline",178 % of control
same,T/C,[5],156 % of control
CS(=O)(=O)OCCN(CCOS(C)(=O)=O)c1ccccc1,T/C,"dose: 3.12 mg/kg/injection, schedule: Q01DX028 (sc), vehicle: carboxymethylcellulose (CMC)",113 % of control
same,T/C,"dose: 6.25 mg/kg/injection, schedule: Q01DX028 (sc), vehicle: carboxymethylcellulose (CMC)",161 % of control
same,T/C,"dose: 12.5 mg/kg/injection, schedule: Q01DX028 (sc), vehicle: carboxymethylcellulose (CMC)",155 % of control
same,T/C,"dose: 15.0 mg/kg/injection, schedule: Q01DX028 (sc), vehicle: carboxymethylcellulose (CMC)",184 % of control
same,T/C,"dose: 22.0 mg/kg/injection, schedule: Q01DX028 (sc), vehicle: carboxymethylcellulose (CMC)",194 % of control
same,T/C,"dose: 25.0 mg/kg/injection, schedule: Q01DX028 (sc), vehicle: carboxymethylcellulose (CMC)",105 % of control
same,T/C,"dose: 33.0 mg/kg/injection, schedule: Q01DX028 (sc), vehicle: carboxymethylcellulose (CMC)",110 % of control
CN(Cc1cnc2nc(N)nc(N)c2n1)c1ccc(C(=O)N[C@@H](CCC(=O)O)C(=O)O)cc1,T/C,"dose: 0.12 mg/kg/injection, schedule: Q01DX028 (sc), vehicle: other",105 % of control
same,T/C,"dose: 1.0 mg/kg/injection, schedule: Q01DX028 (sc), vehicle: other",98 % of control
COC(=O)c1nc(-c2ccc3c(n2)C(=O)C(N)=C(OC)C3=O)c(N)c(-c2ccc(OC)c(OC)c2O)c1C,T/C,"dose: 0.39 mg/kg/injection, schedule: Q01DX028 (sc), vehicle: other",100 % of control
same,T/C,"dose: 0.65 mg/kg/injection, schedule: Q01DX028 (sc), vehicle: other",100 % of control
same,T/C,"dose: 1.08 mg/kg/injection, schedule: Q01DX028 (sc), vehicle: other",100 % of control
same,T/C,"dose: 1.8 mg/kg/injection, schedule: Q01DX028 (sc), vehicle: other",100 % of control
same,T/C,"dose: 3.0 mg/kg/injection, schedule: Q01DX028 (sc), vehicle: other",100 % of control
same,T/C,"dose: 5.0 mg/kg/injection, schedule: Q01DX028 (sc), vehicle: other",102 % of control
